EC50 and IC50 data for seven molecules are collected here from patent US20240400591A1 (Jacobio Pharmaceuticals Co., Ltd., priority 2021, published 2024).

The target of experiment [1] is T1, His-p53 Y220C (94-294) protein (Homo sapiens, UniProt P04637, Y220C).
T1 construct: His-p53 Y220C (94-294) protein
The experiment is described as follows: In vitro DNA binding assay (HTRF). The experiment is classed as biochemical. The conditions noted are these: % activation normalized to 2 μM Ref-1a high control.

In a further experiment the test system is NUGC3 (P53 Y220C). The experiment is described as follows: Cell viability assay (CellTiter-Glo, 6 days), NUGC3. The class given is cell-based. The conditions noted are these: cell viability, 6 days, CellTiter-Glo, read-out: NUGC3 (P53 Y220C) IC50. The essentials:
(§1)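 Cells seeded overnight at 37 °C, then exposed to compounds in medium for 6 days. Viability read by CellTiter-Glo luminescence, normalized to DMSO cell wells (high) and medium-only wells (low); IC50 taken as concentration giving 50% viability from 4-parameter logistic fit.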
On the technique in general: ATP-based viability assays read luminescence as a measure of living cells.

The next experiment relates to NUGC4 (P53 WT). The experiment is described as follows: Cell viability assay (CellTiter-Glo, 6 days), NUGC4. The experiment is classed as cell-based. The conditions noted are these: cell viability, 6 days, CellTiter-Glo, read-out: NUGC4 (P53 WT) IC50. A digest of the protocol:
as §1

Experiment [2] has as its system NUGC-3_P53_Luc single clonal cell line (p53 Y220C). The experiment is described as follows: Reporter gene assay (p53 RE luciferase). The conditions noted are these: luciferase reporter, 6 hours, normalized to Ref-1a (10 μM) high control, read-out: p53(Y220C)_NUGC-3 EC50. The class given is cell-based. The essentials: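 NUGC-3 cells stably carrying a p53 RE-driven luc2P reporter, washed free of phenol red, exposed to compound for 6 h at 37 °C; luminescence read. Activity normalised between DMSO (low) and Ref-1a 10 μM (high) controls; EC50 from 4-parameter logistic fit or Excel as concentration giving 50% activity.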
On the technique in general: In a reporter assay the amount or activity of a reporter protein is the signal.

Where two headings read alike, the source gives them in different places.

Turning to `CNC(=O)c1ccc(NCC#Cc2sc3c(N[C@@H]4CCN(C)C[C@@H]4F)cccc3c2CC(F)(F)F)c(OCCOC)c1` (racemic) [Example 81, 4-((3-(7-(((Z)-3-fluoro-1-methylpiperidin-4-yl)amino)-3-(2,2,2-trifluoroethyl)benzo[b]thiophen-2-yl)prop-2-yn-1-yl)amino)-3-(2-methoxyethoxy)-N-methylbenzamide], the EC50 (as a rule, the concentration needed to bring the measured effect to its halfway point) in experiment [1] came out at 87 nM; in experiment [2] (Homo sapiens, NUGC-3), 290 nM. Besides, the IC50 (as a rule, the concentration that inhibits the measured activity by half) with NUGC3 (P53 Y220C) (Homo sapiens, NUGC-3, 144 h) is 1680 nM; with NUGC4 (P53 WT) (Homo sapiens, NUGC-4, 144 h), 8640 nM.
The corresponding values for `COc1cc(P(C)(C)=O)ccc1NCC#Cc1sc2c(NC3CCN(C)CC3F)cccc2c1C(O)C(F)(F)F` (racemic) [Example 188, (4-((3-(7-((3-fluoro-1-methylpiperidin-4-yl)amino)-3-(2,2,2-trifluoro-1-hydroxyethyl)benzo[b]thiophen-2-yl)prop-2-yn-1-yl)amino)-3-methoxyphenyl)dimethylphosphine oxide(racemic)] are 18 nM, 60 nM, 1900 nM and 40600 nM.
`CN1CC[C@@H](Nc2cccc3c(CC(F)(F)F)c(C#CCNc4ccc(P(C)(C)=O)cc4F)sc23)[C@@H](F)C1` [Example 84, (3-fluoro-4-((3-(7-(((3S,4R)-3-fluoro-1-methylpiperidin-4-yl)amino)-3-(2,2,2-trifluoroethyl)benzo[b]thiophen-2-yl)prop-2-yn-1-yl)amino)phenyl)dimethylphosphine oxide]: the EC50 was 45 nM in experiment [1] and 170 nM in experiment [2] (Homo sapiens, NUGC-3, 6 h). Moreover, the IC50 with NUGC3 (P53 Y220C) (Homo sapiens, NUGC-3, 144 h) turned out to be 1420 nM; with NUGC4 (P53 WT) (Homo sapiens, NUGC-4, 144 h) it was 11500 nM.
For the molecule `[2H]C([2H])([2H])N1CC[C@@H](Nc2cccc3c(CC(F)(F)F)c(C#CCNc4ccc(P(C)(C)=O)cc4OC)sc23)[C@@H](F)C1` [Example 210, (4-((3-(7-(((3S,4R)-3-fluoro-1-(methyl-d3)piperidin-4-yl)amino)-3-(2,2,2-trifluoroethyl)benzo[b]thiophen-2-yl)prop-2-yn-1-yl)amino)-3-methoxyphenyl)dimethylphosphine oxide], the EC50 in experiment [1] was 16 nM; in experiment [2] (Homo sapiens, NUGC-3), 30 nM. In addition, the IC50 was 1280 nM in the experiment with NUGC3 (P53 Y220C) (Homo sapiens, NUGC-3, 144 h) and 12000 nM in the experiment with NUGC4 (P53 WT) (Homo sapiens, NUGC-4, 144 h).
As to `COc1cc(P(C)(C)=O)c(F)cc1NCC#Cc1sc2c(NC3CCN(C)CC3F)cccc2c1CC(F)(F)F` (stereo not shown) [Example 52, (2-fluoro-4-((3-(7-(((Z)-3-fluoro-1-methylpiperidin-4-yl)amino)-3-(2,2,2-trifluoroethyl)benzo[b]thiophen-2-yl)prop-2-yn-1-yl)amino)-5-methoxyphenyl)dimethylphosphine oxide], the EC50 in experiment [1] was 55 nM; in experiment [2] it was 230 nM. The results for the IC50 in the experiment with NUGC3 (P53 Y220C) and in the experiment on NUGC4 (P53 WT) were 750 nM and 4580 nM, respectively.
On to `COc1cc(P(C)(C)=O)ccc1NCC#Cc1sc2c(NC3CCN(CC4CC4)C[C@@H]3F)cccc2c1CC(F)(F)F` (mixture of isomers) [Example 102, (4-((3-(7-(((Z)-1-(cyclopropylmethyl)-3-fluoropiperidin-4-yl)amino)-3-(2,2,2-trifluoroethyl)benzo[b]thiophen-2-yl)prop-2-yn-1-yl)amino)-3-methoxyphenyl)dimethylphosphine oxide], for which the EC50 in experiment [1] was determined as 64 nM; in experiment [2] (Homo sapiens, NUGC-3), 110 nM. Moreover, the IC50 in the experiment with NUGC3 (P53 Y220C) (Homo sapiens, NUGC-3, 144 h) is 810 nM; in the experiment on NUGC4 (P53 WT) (Homo sapiens, NUGC-4, 144 h), 1920 nM.
For `CN1CCC(Nc2cccc3c(CC(F)(F)F)c(C#CCNc4ccc(P(C)(C)=O)c5c4OCC5)sc23)C(F)C1` (stereo not shown) [Example 152, (7-((3-(7-(((Z)-3-fluoro-1-methylpiperidin-4-yl)amino)-3-(2,2,2-trifluoroethyl)benzo[b]thiophen-2-yl)prop-2-yn-1-yl)amino)-2,3-dihydrobenzofuran-4-yl)dimethylphosphine oxide], the EC50 in experiment [1] was found to be 19 nM; in experiment [2] it was 120 nM. The IC50 in the experiment with NUGC3 (P53 Y220C) was 1020 nM; with NUGC4 (P53 WT), 6690 nM.
